From patent US8513271B2, “Pyrimidine compounds as delta opioid receptor modulators” (Janssen Pharmaceutica, NV, priority 2009, dated 2013)
pEC50, pKi: −log10 of the molar value. “And” between values parts separate entries of the source, which are not always exact repeats. Identical values can stand only once. Like-named read-outs stand apart in the source and are kept apart here.

Tests used:
[1] = target: T1, delta opioid receptor (Mus musculus, UniProt P32300); experiment: [35S]GTPγS binding assay in NG108-15 cell membranes (delta opioid functional assay), 200 nM screen; type: biochemical; conditions: NG108-15 cell membranes; for GTPγS δ-RelEfficacy @200 nM: 200 nM test compound, relative to calculated max of SNC80 dose response curve; for GTPγS δ-RelEfficacy @200 nM / EC50 / pEC50: averages if tested more than once; for EC50: GTPγS δ-opioid receptor EC50 (μM); for GTPγS δ-opioid receptor Rel Efficacy: relative efficacy from dose response; for pEC50: read-out: GTPγS δ-opioid receptor EC50
T1 construct: NG108-15 cell membranes were purchased from Applied Cell Sciences (Rockville, Md.); host or cells: NG108-15 cell membranes

[2] = target: hMOR (mu opioid receptor) (Homo sapiens, UniProt P35372); experiment: [35S]GTPγS binding assays in CHO-hMOR cell membranes (mu opioid functional assay); type: biochemical; conditions: for inhibition at 10 µM: read-out: GTPγS μ-opioid receptor % Inh @10 μM
[3] = target: T1, delta opioid receptor; experiment: NG108-15, 24-well delta opioid receptor binding assay
[4] = target: T2, delta opioid receptor (Rattus norvegicus, UniProt P33533); experiment: Rat brain delta opioid receptor binding assay; conditions: δ-binding (Naltrindole ligand) Ki, rat forebrain, [3H]naltrindole ligand
T2 construct: the forebrains were homogenized in Tris buffer in a Teflon®-glass homogenizer; from tissue; host or cells: forebrain of male Wistar rats, particulate (membrane) preparation

[5] = target: T3, mu opioid receptor (Rattus norvegicus, UniProt P33535); experiment: Rat brain mu opioid receptor binding assay; conditions: rat forebrain, [3H]DAMGO ligand
T3 construct: the forebrains were homogenized in Tris buffer in a Teflon®-glass homogenizer; from tissue; host or cells: forebrain of male Wistar rats, particulate (membrane) preparation

[6] = tested on: CFA-induced paw radiant heat hypersensitivity; experiment: CFA-induced paw radiant heat hypersensitivity; type: in vivo, rat; conditions: Rattus norvegicus, po
[7] = CHO-hMOR cell membranes, read-out: GTPγS μ-opioid receptor EC50
[8] = 1 h, read-out: maximum % reversal @ time (min), rat, 30 mg/kg p.o., 0.5% HPMC, @ 60 min
[9] = 0.5 h, read-out: maximum % reversal @ time (min), rat, 30 mg/kg p.o., 0.5% HPMC, @ 30 min

T1 sequence (P32300 whole entry): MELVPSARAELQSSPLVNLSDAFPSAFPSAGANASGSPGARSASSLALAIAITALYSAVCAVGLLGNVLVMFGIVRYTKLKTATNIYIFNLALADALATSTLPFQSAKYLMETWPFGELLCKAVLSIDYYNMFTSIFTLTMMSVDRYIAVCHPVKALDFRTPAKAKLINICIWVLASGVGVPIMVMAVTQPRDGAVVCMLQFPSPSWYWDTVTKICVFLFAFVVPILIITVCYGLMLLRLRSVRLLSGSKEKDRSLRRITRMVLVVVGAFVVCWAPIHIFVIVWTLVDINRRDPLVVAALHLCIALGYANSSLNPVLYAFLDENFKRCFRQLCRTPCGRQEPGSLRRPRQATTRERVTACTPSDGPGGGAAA
T3 sequence (P33535 whole entry): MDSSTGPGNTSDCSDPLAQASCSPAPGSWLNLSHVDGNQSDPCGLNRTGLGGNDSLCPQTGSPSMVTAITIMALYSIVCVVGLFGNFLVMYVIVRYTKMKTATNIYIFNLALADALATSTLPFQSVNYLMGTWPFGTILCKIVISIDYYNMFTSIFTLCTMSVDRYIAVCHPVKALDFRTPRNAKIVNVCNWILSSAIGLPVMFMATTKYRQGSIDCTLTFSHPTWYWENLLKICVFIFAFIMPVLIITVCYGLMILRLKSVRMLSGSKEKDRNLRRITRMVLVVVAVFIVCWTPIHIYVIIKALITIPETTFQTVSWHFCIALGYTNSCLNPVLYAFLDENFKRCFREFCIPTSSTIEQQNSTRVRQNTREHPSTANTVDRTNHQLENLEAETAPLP
T2 sequence (P33533 whole entry): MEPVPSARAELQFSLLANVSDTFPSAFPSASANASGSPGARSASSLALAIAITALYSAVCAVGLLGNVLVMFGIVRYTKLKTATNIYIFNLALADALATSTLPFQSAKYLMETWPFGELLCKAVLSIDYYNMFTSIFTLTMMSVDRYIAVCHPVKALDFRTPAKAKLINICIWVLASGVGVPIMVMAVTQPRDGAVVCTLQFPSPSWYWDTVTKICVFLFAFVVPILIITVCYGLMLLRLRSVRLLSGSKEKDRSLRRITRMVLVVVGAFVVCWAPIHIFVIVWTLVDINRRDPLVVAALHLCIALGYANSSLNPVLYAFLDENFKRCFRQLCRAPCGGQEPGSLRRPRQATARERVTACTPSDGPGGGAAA
Chain of hMOR (mu opioid receptor) (P35372 whole entry, looked up): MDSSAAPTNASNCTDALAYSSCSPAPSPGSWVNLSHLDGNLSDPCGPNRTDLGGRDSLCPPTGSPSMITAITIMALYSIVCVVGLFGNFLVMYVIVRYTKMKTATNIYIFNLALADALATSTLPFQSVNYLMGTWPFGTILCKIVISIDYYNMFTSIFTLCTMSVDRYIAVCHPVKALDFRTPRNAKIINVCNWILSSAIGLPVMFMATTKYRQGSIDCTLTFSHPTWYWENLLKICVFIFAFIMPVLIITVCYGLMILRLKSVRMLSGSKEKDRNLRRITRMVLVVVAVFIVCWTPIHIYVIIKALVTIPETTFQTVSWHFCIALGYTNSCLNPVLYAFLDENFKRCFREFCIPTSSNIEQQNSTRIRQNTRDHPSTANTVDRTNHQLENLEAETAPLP

SMILES | EC50 [1] | GTPγS δ-opioid receptor Rel Efficacy [1] | inhibition at 10 µM [2] [%] | other results
COc1ccc(Oc2nc(-c3cncc(C#N)c3)ncc2N2CCNC(C)C2)cc1 (racemic) [Cpd 343] | 0.001 µM | 1.105 | 7.29 | GTPγS δ-RelEfficacy @200 nM [1]: 0.985; pEC50 [2]: 5.70
COc1ccc(Oc2nc(-c3cncc(F)c3)ncc2NC[C@@H]2CCCN2)cc1 [Cpd 54] | – | – | – | pKi [3]: 9.73; pKi [4]: 9.48; pKi ([5]; read-out: μ-binding Ki): 6.66; inhibition in vivo at 100 mg/kg ([6]; 1 h, read-out: maximum % reversal @ time (min), rat, 100 mg/kg p.o., 0.5% HPMC, @ 60 min): 17.8%; inhibition in vivo at 100 mg/kg ([6]; 3 h, read-out: maximum % reversal @ time (min), rat, 100 mg/kg p.o., 0.5% HPMC, @ 180 min): 32.7%
COc1ccc(Oc2nc(-c3cncc(OC)c3)ncc2NC[C@@H]2CCCN2)cc1 [Cpd 68] | 0.031 µM | 0.912 | 11.5 | pKi [4]: 8.70; pKi ([5]; μ-binding Ki): 6.33
COc1ccc(Oc2nc(-c3cncc(C#N)c3)ncc2NC[C@@H]2CCCN2)c(F)c1F [Cpd 101] | – | – | 16.6 | pKi [4]: 8.15; pKi ([5]; μ-binding Ki): 7.24; pEC50 [1]: 6.99; pEC50 [2, 7]: < 5.00
CCOc1ccc(Oc2nc(-c3cncc(F)c3)ncc2NC[C@@H]2CCCN2)cc1 [Cpd 106] | 0.027 µM | 1.019 | 17 | pKi [4]: 8.22; pKi ([5]; μ-binding Ki): 7.38; pEC50 [2]: < 5.00
COc1ccc(Oc2nc(-c3cncc(SC)c3)ncc2NC[C@@H]2CCCN2)cc1 [Cpd 107, [4-(4-Methoxy-phenoxy)-2-(5-methylsulfanyl-pyridin-3-yl)-pyrimidin-5-yl]-pyrrolidin-2-(S)-ylmethyl-amine] | 0.0213 µM | 0.957 | 4.05 | pKi [4]: 9.00; pKi ([5]; μ-binding Ki): 7.41; GTPγS δ-RelEfficacy @200 nM [1]: 1.046; pEC50 [2]: 5.29; ED50 ([6]; 2 h): 32 mg/kg; inhibition in vivo at 100 mg/kg ([6]; 2 h, read-out: maximum % reversal @ time (min), rat, 100 mg/kg p.o., 0.5% HPMC, @ 120 min): 52.8%
COc1ccc(Oc2nc(-c3cncc(C#N)c3)ncc2NC[C@@H]2CCCN2)cc1F [Cpd 132] | 0.015 µM | 1.042 | 9.4 | pKi [3]: 9.40; pKi ([5]; μ-binding Ki): 7.21; pEC50 [2]: 5.03
COc1ccc(Oc2nc(-c3cncc(C#N)c3)ncc2NC[C@@H]2C[C@@H](F)CN2)cc1 [Cpd 134] | 0.004 µM | 1.087 | 1 | pKi [3]: 10.32; pKi ([5]; μ-binding Ki): 7.57; pEC50 [2]: 5.56
COc1ccc(Oc2nc(-c3cncc(SC)c3)ncc2NC[C@@H]2C[C@@H](F)CN2)cc1 [Cpd 234] | 0.034 µM | 0.987 | 7.29 | GTPγS δ-RelEfficacy @200 nM [1]: 0.847
COc1ccc(Oc2nc(-c3cncc(OC)c3)ncc2NC[C@@H]2C[C@@H](F)CN2)cc1 [Cpd 235] | 0.00733 µM | 0.953 | – | GTPγS δ-RelEfficacy @200 nM [1]: 0.962; inhibition in vivo at 30 mg/kg [6, 8]: 43.7%
COc1ccc(Oc2nc(-c3cccnc3)ncc2N[C@H]2CCCNC2)cc1 [Cpd 236] | 0.017 µM | 1.042 | 6.2 | GTPγS δ-RelEfficacy @200 nM [1]: 1.026
COc1ccc(Oc2nc(-c3cncc(C)c3)ncc2NC[C@@H]2C[C@@H](F)CN2)cc1 [Cpd 238] | 0.008 µM | 0.966 | – | inhibition in vivo at 30 mg/kg [6, 8]: 39.5%
COc1ccc(Oc2nc(-c3cncc(OC)c3)ncc2N[C@H]2CCCNC2)cc1 [Cpd 245] | 0.0127 µM | 1.095 | 4.26 | –
COc1ccc(Oc2nc(-c3cncc(SC)c3)ncc2N[C@H]2CCCNC2)cc1 [Cpd 252] | 0.025 µM | 1.007 | 2.48 | –
COc1ccc(Oc2nc(-c3cncc(C)c3)ncc2NC[C@@H]2CCCN2)cc1 [Cpd 253] | 0.0168 µM | 0.997 | – | inhibition in vivo at 30 mg/kg [6, 8]: 75.9%
COc1ccc(Oc2nc(-c3cncc(SC)c3)ncc2N[C@H]2CCNC2)cc1 [Cpd 255] | 0.0464 µM | 0.997 | 17.1 | –
COc1ccc(Oc2nc(-c3cncc(OC)c3)ncc2N[C@H]2CCNC2)cc1 [Cpd 256] | 0.034 µM | 1.004 | 6.2 | –
COc1ccc(Oc2nc(-c3cccnc3)ncc2N2CCNCC2)cc1 [Cpd 327, 4-(4-Methoxy-phenoxy)-5-piperazin-1-yl-2-pyridin-3-yl-pyrimidine] | 0.0527 µM | 1.037 | 4.26 | GTPγS δ-RelEfficacy @200 nM [1]: 0.471; ED50 ([6]; 1 h): 14.3 mg/kg; inhibition in vivo at 30 mg/kg [6, 8]: 102%
COc1ccc(Oc2nc(-c3cccnc3)ncc2N2CCCNCC2)cc1 [Cpd 336] | 0.0502 µM | 1.009 | 17.1 | GTPγS δ-RelEfficacy @200 nM [1]: 0.830; inhibition in vivo at 30 mg/kg [6, 9]: 23.4%
COc1ccc(Oc2nc(-c3cncc(SC)c3)ncc2N2CCNCC2)cc1 [Cpd 341] | 0.041 µM | 0.788 | 0 | –
COc1ccc(Oc2nc(-c3cncc(C#N)c3)ncc2N2CCNC[C@@H]2C)cc1 [Cpd 345] | 0.001 µM | 1.089 | 0 | GTPγS δ-RelEfficacy @200 nM [1]: 0.989; pEC50 [2]: 5.71
COc1ccc(Oc2nc(-c3cncc(OC)c3)ncc2N2CCCNCC2)cc1 [Cpd 346] | 0.047 µM | 1.031 | – | inhibition in vivo at 30 mg/kg [6, 9]: 37%
COc1ccc(Oc2nc(-c3cncc(SC)c3)ncc2N2CCCNCC2)cc1 [Cpd 347] | 0.069 µM | 0.898 | -0.404 | –
COc1ccc(Oc2nc(-c3cncc(OC)c3)ncc2N2CC[C@@H](N)C2)cc1 [Cpd 349] | 0.082 µM | 0.929 | 0 | –
COc1ccc(Oc2nc(-c3cncc(C)c3)ncc2N2CCNCC2)cc1 [Cpd 351] | 0.0249 µM and 0.034 µM | 1.036 and 1.056 | – | inhibition in vivo at 30 mg/kg [6, 9]: 9.8%
COc1ccc(Oc2nc(-c3cccnc3)ncc2N2CCNC[C@@H]2C)cc1 [Cpd 354] | 0.026 µM | 1.050 | – | inhibition in vivo at 30 mg/kg [6, 8]: 24.7%
COc1ccc(Oc2nc(-c3cccnc3)ncc2N2CCNC(C)(C)C2)cc1 [Cpd 355] | – | 1.002 | – | pEC50 [1]: 7.66; GTPγS μ-opioid receptor % Inh @10 μM ([2]; 10 μM, CHO-hMOR cell membranes, inhibition of agonist-stimulated GTPγS binding): 0.000%; pEC50 [2, 7]: 6.61
COc1ccc(Oc2nc(-c3cccnc3)ncc2N2CCN[C@H](C)C2)cc1 [Cpd 357, 4-(4-Methoxy-phenoxy)-5-[3-(R)-methyl-piperazin-1-yl]-2-pyridin-3-yl-pyrimidine] | 0.005 µM | 0.929 | 11.5 | pEC50 [2]: 5.74
